Data as given in the supplement of paper PMC12350171.

Experiments:
[1] = system: Com21 synthetic gut community; test: community biomass OD578 after 24 h drug treatment relative to untreated (fraction of untreated control); higher = more community growth; settings: community: Com21 (Com20 + E. coli ED1a)
Method: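 Com21 (Com20 plus E. coli ED1a) was treated with drug for 24 h under anaerobic conditions in mGAM. Community OD578 was then measured and normalised to untreated Com21; mean of 3 biological replicates.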

[2] = system: Escherichia coli ED1a; test: IC25 growth inhibition; higher = less potent
How it was run: (§1)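 Monocultures grown overnight in mGAM were added to pre-reduced plates holding twofold drug dilutions, giving a starting OD578 of 0.01 and 1% DMSO (or water). Growth was followed anaerobically by hourly OD578 readings in a plate reader, with at least three biological replicates. The median growth-curve AUC per concentration was forced to be monotonic. IC25 was the lowest concentration with median AUC below 0.75, reported as a tested interval.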

[3] = system: Bacteroides thetaiotaomicron; test: IC25 growth inhibition; higher = less potent
How it was run: as §1

[4] = system: Coprococcus comes; test: IC25 growth inhibition; higher = less potent
How it was run: as §1

[5] = system: Streptococcus salivarius; test: IC25 growth inhibition; higher = less potent
How it was run: as §1

[6] = system: Collinsella aerofaciens; test: IC25 growth inhibition; higher = less potent
How it was run: as §1

[7] = system: Clostridium ramosum; test: IC25 growth inhibition; higher = less potent
How it was run: as §1

[8] = system: Clostridium bolteae; test: IC25 growth inhibition; higher = less potent
How it was run: as §1

[9] = system: Fusobacterium nucleatum subsp. Nucleatum; test: IC25 growth inhibition; higher = less potent
How it was run: as §1

[10] = system: Bacteroides uniformis; test: IC25 growth inhibition; higher = less potent
How it was run: as §1

[11] = system: Dorea formicigenerans; test: IC25 growth inhibition; higher = less potent
How it was run: as §1

[12] = system: Vibrio cholerae; test: IC25 growth inhibition; higher = less potent
How it was run: as §1

[13] = system: Roseburia intestinalis; test: IC25 growth inhibition; higher = less potent
How it was run: as §1

[14] = system: Clostridium perfringens; test: IC25 growth inhibition; higher = less potent
How it was run: as §1

[15] = system: Parabacteroides merdae; test: IC25 growth inhibition; higher = less potent
How it was run: as §1

[16] = system: Bacteroides fragilis NT; test: IC25 growth inhibition; higher = less potent
How it was run: as §1

[17] = system: Yersinia pseudotuberculosis; test: IC25 growth inhibition; higher = less potent
How it was run: as §1

[18] = system: Yersinia enterocolitica WA-314; test: IC25 growth inhibition; higher = less potent
How it was run: as §1

[19] = system: Ruminococcus gnavus; test: IC25 growth inhibition; higher = less potent
How it was run: as §1

[20] = system: Eubacterium rectale; test: IC25 growth inhibition; higher = less potent
How it was run: as §1

[21] = system: Bacteroides vulgatus; test: IC25 growth inhibition; higher = less potent
How it was run: as §1

[22] = system: Shigella flexneri; test: IC25 growth inhibition; higher = less potent
How it was run: as §1

[23] = system: Salmonella enterica typhimurium; test: IC25 growth inhibition; higher = less potent
How it was run: as §1

[24] = system: Streptococcus parasanguinis; test: IC25 growth inhibition; higher = less potent
How it was run: as §1

[25] = system: Clostridium saccharolyticum; test: IC25 growth inhibition; higher = less potent
How it was run: as §1

[26] = drug pretreatment concentration 10 µM
[27] = drug pretreatment concentration 20 µM
[28] = drug pretreatment concentration 40 µM
[29] = drug pretreatment concentration 80 µM
[30] = drug pretreatment concentration 160 µM
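Wherever IC25 growth inhibition is given: lowest concentration where monotonic median growth AUC falls below 0.75 of drug-free control.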

Structure (SMILES) | community biomass OD578 [1, 26] | community biomass OD578 [1, 27] | community biomass OD578 [1, 28] | community biomass OD578 [1, 29] | community biomass OD578 [1, 30] | IC25 growth inhibition [2] [µM] | IC25 growth inhibition [3] [µM] | IC25 growth inhibition [4] [µM] | IC25 growth inhibition [5] [µM] | IC25 growth inhibition [6] [µM] | IC25 growth inhibition [7] [µM] | IC25 growth inhibition [8] [µM] | IC25 growth inhibition [9] [µM] | IC25 growth inhibition [10] [µM] | IC25 growth inhibition [11] [µM] | IC25 growth inhibition [12] [µM] | IC25 growth inhibition [13] [µM] | IC25 growth inhibition [14] [µM] | IC25 growth inhibition [15] [µM] | IC25 growth inhibition [16] [µM] | IC25 growth inhibition [17] [µM] | IC25 growth inhibition [18] [µM] | IC25 growth inhibition [19] [µM] | IC25 growth inhibition [20] [µM] | IC25 growth inhibition [21] [µM] | IC25 growth inhibition [22] [µM] | IC25 growth inhibition [23] [µM] | IC25 growth inhibition [24] [µM] | IC25 growth inhibition [25] [µM]
C[C@H]1c2cccc(O)c2C(=O)C2=C(O)[C@]3(O)C(=O)C(C(N)=O)=C(O)[C@@H](N(C)C)[C@@H]3[C@@H](O)[C@@H]21 [Doxycycline] | 0.062 | 0.06 | 0.064 | 0.065 | 0.064 | < 1.25 | < 1.25 | ≤ 40 | ≤ 40 | < 1.25 | < 1.25 | < 1.25 | < 1.25 | < 1.25 | < 1.25 | < 1.25 | < 1.25 | < 1.25 | ≤ 40 | < 1.25 | ≤ 40 | ≤ 40 | ≤ 40 | < 1.25 | < 1.25 | ≤ 40 | > 160 | < 1.25 | < 1.25
CCc1oc2ccccc2c1C(=O)c1cc(Br)c(O)c(Br)c1 [Benzbromarone] | 0.877 | 0.86 | 0.812 | 0.687 | 0.301 | > 160 | ≤ 20 | ≤ 40 | ≤ 10 | ≤ 40 | ≤ 20 | ≤ 40 | ≤ 80 | ≤ 10 | ≤ 40 | ≤ 160 | ≤ 40 | ≤ 10 | ≤ 20 | ≤ 20 | > 160 | > 160 | ≤ 20 | ≤ 20 | ≤ 20 | > 160 | > 160 | ≤ 10 | ≤ 10
CCOC1O[C@H]([C@@H](COCc2ccccc2)OCc2ccccc2)[C@H](OCc2ccccc2)[C@H]1O (stereo partly drawn) [Tribenoside] | 0.995 | 0.955 | 0.976 | 0.945 | 0.947 | > 20 | > 40 | > 40 | > 80 | > 40 | > 40 | > 80 | > 40 | > 40 | > 20 | > 40 | > 80 | > 80 | > 40 | > 40 | > 40 | ≤ 160 | > 40 | > 40 | > 40 | > 40 | > 40 | > 40 | > 80
O=C(Nc1ccc([N+](=O)[O-])cc1Cl)c1cc(Cl)ccc1O [Niclosamide] | 0.912 | 0.901 | 0.897 | 0.823 | 0.811 | > 80 | < 1.25 | ≤ 20 | < 1.25 | ≤ 5 | ≤ 2.5 | > 80 | ≤ 80 | < 1.25 | ≤ 20 | < 1.25 | ≤ 20 | ≤ 2.5 | < 1.25 | < 1.25 | > 20 | > 160 | ≤ 10 | ≤ 5 | < 1.25 | > 40 | > 160 | < 1.25 | ≤ 20
NC[C@H]1O[C@H](O[C@H]2[C@H](O)[C@@H](O[C@H]3O[C@H](CO)[C@@H](O)[C@H](N)[C@H]3O)[C@H](N)C[C@@H]2N)[C@H](N)C[C@@H]1O [Tobramycin] | 1.01 | 0.969 | 0.972 | 0.983 | 0.992 | ≤ 20 | > 160 | ≤ 40 | ≤ 5 | ≤ 10 | ≤ 160 | > 160 | ≤ 80 | > 160 | > 160 | ≤ 160 | ≤ 10 | ≤ 20 | > 160 | > 160 | ≤ 20 | ≤ 40 | ≤ 40 | ≤ 20 | > 160 | ≤ 40 | ≤ 160 | ≤ 5 | ≤ 10
Clc1ccc(COC(Cn2ccnc2)c2ccc(Cl)cc2Cl)c(Cl)c1 (stereo not drawn) [Miconazole] | 1.02 | 0.969 | 0.893 | 0.702 | 0.547 | > 80 | > 160 | ≤ 5 | > 80 | ≤ 10 | ≤ 10 | ≤ 80 | > 40 | > 160 | ≤ 5 | > 40 | ≤ 5 | ≤ 40 | ≤ 80 | > 160 | > 40 | ≤ 160 | ≤ 10 | ≤ 2.5 | ≤ 160 | > 40 | > 160 | > 160 | ≤ 40
Cc1c(OCC(F)(F)F)ccnc1C[S+]([O-])c1nc2ccccc2[nH]1 (stereo not drawn) [Lansoprazole] | 0.935 | 0.962 | 0.952 | 0.945 | 0.926 | > 160 | > 160 | > 160 | > 160 | ≤ 160 | > 160 | > 160 | > 160 | ≤ 160 | ≤ 160 | > 160 | > 160 | > 160 | > 160 | > 160 | > 160 | > 160 | > 160 | > 80 | > 160 | > 160 | > 160 | > 160 | > 160
